Experimental data from publication PMC7490372, “Structural bases of IMiD selectivity that emerges by 5-hydroxythalidomide” (Nature Communications, 2020).

Biological target: T1, cereblon (CRBN) (Homo sapiens, UniProt Q96SW2)
T1 construct: biotinylated CRBN (wheat cell-free); with SALL4
Assay: AlphaScreen-based ternary complex formation, dose-dependent, in cell-free translation mixtures

T1 sequence (Q96SW2 whole entry): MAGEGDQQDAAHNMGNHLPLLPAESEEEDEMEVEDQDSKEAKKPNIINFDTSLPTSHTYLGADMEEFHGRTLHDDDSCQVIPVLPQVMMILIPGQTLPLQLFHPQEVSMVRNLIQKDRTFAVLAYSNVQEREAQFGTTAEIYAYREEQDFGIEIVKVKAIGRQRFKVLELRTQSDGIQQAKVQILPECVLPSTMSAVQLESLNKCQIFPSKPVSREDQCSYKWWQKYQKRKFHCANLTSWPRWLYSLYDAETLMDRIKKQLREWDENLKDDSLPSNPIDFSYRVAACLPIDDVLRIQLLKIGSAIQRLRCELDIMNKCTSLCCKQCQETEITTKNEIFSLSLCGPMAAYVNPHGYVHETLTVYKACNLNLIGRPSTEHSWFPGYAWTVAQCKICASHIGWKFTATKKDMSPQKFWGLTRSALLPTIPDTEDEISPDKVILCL
T1 sequence (Q9UJQ4 whole entry partner): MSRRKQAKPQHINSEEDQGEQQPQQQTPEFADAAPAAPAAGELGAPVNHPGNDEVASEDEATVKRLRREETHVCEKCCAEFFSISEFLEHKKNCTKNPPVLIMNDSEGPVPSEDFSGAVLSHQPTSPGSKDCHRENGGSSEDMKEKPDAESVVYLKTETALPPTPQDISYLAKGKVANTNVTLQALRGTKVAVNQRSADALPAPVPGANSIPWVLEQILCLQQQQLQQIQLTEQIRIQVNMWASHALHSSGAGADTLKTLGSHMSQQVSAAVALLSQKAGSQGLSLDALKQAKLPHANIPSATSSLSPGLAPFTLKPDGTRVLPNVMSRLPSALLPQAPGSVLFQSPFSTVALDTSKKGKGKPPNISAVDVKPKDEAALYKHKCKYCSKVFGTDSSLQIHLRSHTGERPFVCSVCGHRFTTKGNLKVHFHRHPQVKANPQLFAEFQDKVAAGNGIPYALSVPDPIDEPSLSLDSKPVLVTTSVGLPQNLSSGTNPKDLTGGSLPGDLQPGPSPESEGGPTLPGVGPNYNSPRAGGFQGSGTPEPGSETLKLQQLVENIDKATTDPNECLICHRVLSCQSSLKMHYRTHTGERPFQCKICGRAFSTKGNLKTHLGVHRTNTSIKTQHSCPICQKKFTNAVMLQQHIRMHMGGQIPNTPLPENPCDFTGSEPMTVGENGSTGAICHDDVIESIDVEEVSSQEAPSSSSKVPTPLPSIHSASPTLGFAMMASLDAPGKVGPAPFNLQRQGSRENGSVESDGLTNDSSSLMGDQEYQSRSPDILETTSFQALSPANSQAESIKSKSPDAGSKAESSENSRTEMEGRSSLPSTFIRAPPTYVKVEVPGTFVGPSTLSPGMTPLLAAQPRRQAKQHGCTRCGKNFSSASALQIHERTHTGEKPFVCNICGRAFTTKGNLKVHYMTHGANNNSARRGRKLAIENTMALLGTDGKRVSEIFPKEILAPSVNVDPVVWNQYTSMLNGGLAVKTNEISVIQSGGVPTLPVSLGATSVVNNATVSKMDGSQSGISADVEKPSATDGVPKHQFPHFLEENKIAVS

Nc1c(O)ccc2c1C(=O)N(C1CCC(=O)NC1=O)C2=O (stereo not shown) [5HP, 5-hydroxypomalidomide]
AlphaScreen-based ternary complex formation, dose-dependent, in cell-free transl: Dose-dependent interaction of CRBN with SALL4 (left) and IKZF1 (right), as observed with the titration of racemate, Pom, and 5HP
